Columns and labels:
Human CO-HbS = target: T1, Human CO-HbS (Homo sapiens, UniProt P69905); assay: Crystallography of CO-liganded HbS with compound; settings: CO-HbS 0.8 mM, compound 1 mM
T1 construct: Purified HbS was prepared from blood using a combination of gel filtration and anion exchange chromatography; from tissue; host or cells: blood
Procedure: Purified HbS was prepared from blood using a combination of gel filtration and anion exchange chromatography. Following preparation, the purified HbS solution was concentrated to 1 mM in a volume of 1 mL using a Vivaspin 20 concentrator (GE healthcare) via centrifugation at room temperature in an Eppendorf 5810 R centrifuge. The concentrated HbS solution was then buffer exchanged into potassium phosphate buffer by mixing 1 mL of concentrated HbS solution with 20 mL of 1.8 M potassium phosphate buffer, pH 7.4 and re-concentrating back to 1 mL using a Vivaspin 20. This process was repeated twice and aliquots of the resulting HbS solution were flash frozen using liquid nitrogen and stored at −80° C. To prepare HbS-CO, purified HbS was first saturated with CO for five hours before it was buffer exchanged into 20 mM Hepes buffer, pH 7.4, and concentrated to 3 mM.
Human CO-HbS was crystallized using sitting drop vapor diffusion method. Freshly prepared CO-HbS at 0.8 mM and buffered with 20 mM HEPES pH 7.4 was mixed with compounds (specifically, Compound 1 and Compound 2) at a final concentration of 1 mM. […] The appearance of hemoglobin crystals was monitored visually and microscopically every 48-72 hours after beginning of the experiments. […]

hemoglobin = target: T2, hemoglobin (Homo sapiens, UniProt P69905); assay: Whole blood assay: oxygen equilibrium curves (Hemox Analyzer), change in p50; format: cell-based; settings: whole blood 20% Hct (1 mM Hb), compound 1 mM, equimolar to hemoglobin, 1 h at 37° C.
T2 construct: from tissue; host or cells: whole blood (red blood cells)
T2 sequence (P69905 2-142 limits assumed): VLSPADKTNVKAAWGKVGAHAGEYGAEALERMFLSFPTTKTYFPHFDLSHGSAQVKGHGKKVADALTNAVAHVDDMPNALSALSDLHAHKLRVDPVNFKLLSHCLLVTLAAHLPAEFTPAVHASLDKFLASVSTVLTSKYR
T2 sequence (P68871 2-147 partner limits assumed): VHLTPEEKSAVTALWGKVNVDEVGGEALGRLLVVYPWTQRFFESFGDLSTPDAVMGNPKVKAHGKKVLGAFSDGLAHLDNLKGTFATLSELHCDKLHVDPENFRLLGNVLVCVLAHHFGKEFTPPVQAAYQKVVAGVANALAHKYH
Procedure: Oxygen equilibrium curves (OECs) were collected using a TCS Hemox Analyzer (TCS Scientific Company, New Hope, Pa., USA) to measure changes in the binding affinity of 02 to Hb. Whole blood was incubated for 1 h at 37° C. with the indicated compounds in an equimolar ratio of hemoglobin to compound and diluted into TES (2-[[1,3-dihydroxy-2-(hydroxymethyl)propan-2-yl]amino]ethanesulfonic acid)/saline buffer prior to measurements. For example, for whole blood at 20% hematocrit [Hct], which corresponds to 1 mM Hb, a compound concentration of 1 mM was used (for example, for compounds 1-53), and the incubated sample diluted 50- to 100-fold. The concentration for compound 54 was 1.7 mM and in equimolar ratio to hemoglobin. The diluted samples were then oxygenated with compressed air within the Hemox Analyzer, and the OECs were collected during deoxygenation as previously described (Guarnone et al., Haematologica, 1995, 80, 426-430). p50 (partial pressure of 02 at which Hb is 50% saturated with 02) values were obtained using a non-linear regression analysis. Percentage change in p50 [Δp50(%)] was calculated as follows: Δp50(%)=[(p50 of control)−p50 with compound)/p50 control]×100.

[1] = Pharmacokinetics in rats following 10 mg/kg oral administration; format: in vivo; settings: Sprague-Dawley, rat, PO 10 mg/kg
Procedure: The pharmacokinetic (PK) profile of Compound 2 was characterized in Sprague-Dawley rats following oral administration of 10 mg/kg. Blood and plasma samples were serially collected from each animal up to 240 h post-dose and analyzed for their concentrations using LC/MS. The analytical range was 100 to 100,000 ng/ml for both plasma and blood samples. Blood and plasma concentrations of Compound 2 were analyzed by non-compartmental analysis using Phoenix WinNonlin software (version 6-4; Pharsight Inc., Cary, N.C., USA) to obtain pharmacokinetic parameters, including half-life (T½) and area under the curve (AUC). AUClast refers to the area under the curve calculated from t=0 to the last detectable time-point. Blood to plasma concentration ratio was calculated from a ratio of AUClast in blood divided by AUClast in plasma.
Blood pharmacokinetic parameters in rat were determined in individual animals and reported as mean.

T1 sequence (P69905 2-142 limits assumed): as the sequence (P69905 2-142 limits assumed) above

| SMILES | binding sites on hemoglobin (crystal structure) (Human CO-HbS) | Delta-p50 (%) (hemoglobin) | blood plasma ratio ([1]; blood and plasma, AUClast in blood divided by AUClast in plasma) | AUC(0-t) ([1]; whole blood, blood, 0.5% MC, mean of N=3) [µg·h/mL] | half-life ([1]; whole blood, blood, 0.5% MC, mean of N=3, read-out: T½ (converted)) [h] |
| --- | --- | --- | --- | --- | --- |
| O=Cc1c(O)cccc1OC[C@@H]1CCCCN1C(=O)c1cccc(O)c1C=O [Compound 1, 2-[(2S)-2-[(2-formyl-3-hydroxyphenoxy)methyl]piperidine-1-carbonyl]-6-hydroxybenzaldehyde] | two distinct areas of hemoglobin | 75.8 | – | – | – |
| O=Cc1ccccc1C(=O)N1CCCC[C@H]1COc1cccc(O)c1C=O [Compound 2, 2-{[(2S)-1-(2-formylbenzoyl)piperidin-2-yl]methoxy}-6-hydroxybenzaldehyde] | two distinct areas of hemoglobin | 78.3 | 937 | 239 | 187 |

From patent US11014884B2 (Global Blood Therapeutics, Inc., priority 2018, dated 2021)
